Assay results as given in PMC5931576, “Allosteric modulation of the farnesoid X receptor by a small molecule” (Scientific Reports, 2018).

What was measured:
[1] = test system: BSEP mRNA; assay: FXR target gene quantification (qRT-PCR) in HepG2 cells: BSEP; format: cell-based; conditions: for BSEP mRNA, mean fold activation compared to DMSO (0.1%): HepG2, 24 h
[2] = target: T1, human FXR (Homo sapiens, UniProt Q96RI1); assay: Full-length FXR transactivation (reporter gene) assay in HeLa cells; format: cell-based
T1 construct: expressed in transfected cells; host or cells: HeLa
T1 sequence (Q96RI1 1-486): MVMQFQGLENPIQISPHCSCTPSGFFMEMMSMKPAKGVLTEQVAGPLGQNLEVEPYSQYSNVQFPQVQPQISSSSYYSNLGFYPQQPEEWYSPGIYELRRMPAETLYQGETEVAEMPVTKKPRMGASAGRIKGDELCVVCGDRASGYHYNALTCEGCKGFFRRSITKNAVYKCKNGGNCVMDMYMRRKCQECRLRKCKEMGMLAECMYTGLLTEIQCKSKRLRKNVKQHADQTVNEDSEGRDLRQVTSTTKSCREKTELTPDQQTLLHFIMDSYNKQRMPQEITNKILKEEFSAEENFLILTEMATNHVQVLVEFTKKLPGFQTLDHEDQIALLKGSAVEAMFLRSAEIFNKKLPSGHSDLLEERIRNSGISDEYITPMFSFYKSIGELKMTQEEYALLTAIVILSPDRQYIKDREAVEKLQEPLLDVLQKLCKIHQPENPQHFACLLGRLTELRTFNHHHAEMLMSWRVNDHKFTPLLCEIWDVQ
T1 sequence (P19793 1-462 partner): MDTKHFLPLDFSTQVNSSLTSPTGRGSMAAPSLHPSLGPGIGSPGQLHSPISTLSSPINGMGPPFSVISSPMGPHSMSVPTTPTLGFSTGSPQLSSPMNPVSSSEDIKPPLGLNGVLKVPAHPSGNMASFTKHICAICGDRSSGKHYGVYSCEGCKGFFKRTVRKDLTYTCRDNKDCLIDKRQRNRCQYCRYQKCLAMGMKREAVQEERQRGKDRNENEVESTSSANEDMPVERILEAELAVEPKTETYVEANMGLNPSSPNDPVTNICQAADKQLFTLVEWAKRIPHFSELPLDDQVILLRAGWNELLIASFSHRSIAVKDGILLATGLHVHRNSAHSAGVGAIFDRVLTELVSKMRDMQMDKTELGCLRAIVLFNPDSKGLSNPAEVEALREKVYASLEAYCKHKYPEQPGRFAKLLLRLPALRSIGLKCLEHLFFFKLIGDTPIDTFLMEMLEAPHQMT

[3] = test system: FXR-LBD; assay: Thermal shift assay (SYPRO Orange); format: binding; conditions: compound 100 µM alone, 5 µM FXR-LBD; mean ± SEM, n ≥ 4
Protocol: Thermal shift experiments were performed in clear 96-well plates (Invitrogen) using SYPRO Orange (Invitrogen) as dye as described previously[38]. 10 μL of test compound (final concentrations: 3: 100 µM; 16: 100 µM) in assay buffer (10 mM TRIS (pH 8.3), 5 mM DTT, 0.5 mM EDTA, 100 mM NaCl) were mixed with 10 μL of FXR-LBD (final protein concentration 5 µM) in assay buffer and 5 µL of SYPRO Orange (5 × final concentration). Temperature-dependent fluorescence increase reporting protein denaturation was measured in duplicates in an ICycler (Bio-Rad Laboratories, Hercules, CA, USA) from 20 to 90 °C in steps of 0.5 °C per minute at 300 nm excitation and 570 nm emission wavelength. The first derivative of the melting curve was calculated using the Graph Pad Prism 5 software. All curves were determined at least four times in independent experiments.

[4] = test system: T2, RXRα; assay: Gal4-DBD-RXRα-LBD hybrid reporter gene assay; format: cell-based, human
T2 construct: expressed in transfected cells; host or cells: HEK293T
Source text: The Gal4-fusion receptor plasmids pFA-CMV-hPPARα-LBD[34], pFA-CMV-hPPARγ-LBD[34], pFA-CMV-hPPARδ-LBD[34], pFA-CMV-hLXRα-LBD[35], pFA-CMV-hLXRβ-LBD[35], pFA-CMV-hRXRα-LBD[36], pFA-CMV-hRXRβ-LBD[36], pFA-CMV-hRXRγ-LBD[36], pFA-CMV-hRARα-LBD[36], pFA-CMV-hRARβ-LBD[36], pFA-CMV-hRARγ-LBD[36], pFA-CMV-hVDR-LBD[36] and pFA-CMV-hCAR-LBD[36] coding for the hinge region and ligand binding domain (LBD) of the canonical isoform of the respective nuclear receptor have been reported previously. pFR-Luc (Stratagene) was used as reporter plasmid and pRL-SV40 (Promega) for normalization of transfection efficiency and cell growth.
HEK293T cells were grown in DMEM high glucose, supplemented with 10% FCS, sodium pyruvate (1 mM), penicillin (100 U/mL) and streptomycin (100 μg/mL) at 37 °C and 5% CO2. The day before transfection, HEK293T cells were seeded in 96-well plates (2.5·10^4 cells/well). Before transfection, medium was changed to Opti-MEM without supplements. Transient transfection was carried out using Lipofectamine LTX reagent (Invitrogen) according to the manufacturer’s protocol with pFR-Luc (Stratagene), pRL-SV40 (Promega) and pFA-CMV-hNR-LBD. […] Luminescence was measured with an Infinite M200 luminometer (Tecan Deutschland GmbH) or a Tecan Spark 10 M luminometer (Tecan). […]

[5] = test system: PDGF-Rα; assay: Kinase inhibition assay (radiometric or HTRF); format: biochemical
[6] = test system: Abl; assay: Kinase inhibition assay (radiometric or HTRF); format: biochemical

CS(=O)(=O)O.CS(=O)(=O)O.CS(=O)(=O)O.CS(=O)(=O)O.Cc1ccc(NC(=O)c2ccc(Cl)cc2)cc1Nc1nccc(-c2cccnc2)n1.Cc1ccc(NC(=O)c2ccc(Cl)cc2)cc1Nc1nccc(-c2cccnc2)n1.O.O.O [compound 16, 4-Chloro-N-(4-methyl-3-(4-(pyridin-3-yl)pyrimidin-2-ylamino)phenyl)benzamide dimesylate-sesquihydrate]
CDCA-induced BSEP mRNA expression compared to 1 alone ([1]; HepG2, 16 co-incubated with 1): about 3 fold | BSEP mRNA, mean fold activation compared to DMSO (0.1%) ([1]; 0.3 µM alone): 2.64 ± 0.07 | BSEP mRNA, mean fold activation compared to DMSO (0.1%) ([1]; 16 (0.3 µM) + 1 (20 µM)): 4.56 ± 0.77 | BSEP mRNA, mean fold activation compared to DMSO (0.1%) ([1]; 16 (0.3 µM) + 1 (50 µM)): 29.37 ± 3.32 | Effect on transactivation efficacy of FXR agonists 1–3 ([2]; 16 at 10 µM): significantly enhances | Emax ([2]; HeLa, read-out: hFXR: max. rel. act.): 8.4% | EC50 ([2]; full-length reporter gene assay, HeLa cells, mean ± SEM, n ≥ 3, read-out: hFXR: EC50): 1.9 ± 0.6 nM | Effect on EC50-value of 1 ([2]; in presence of 0.1 µM 16): not affected | Increase of maximum relative activation of 1 ([2]; in presence of 0.1 µM 16): about 50% | Thermal shift of FXR-LBD melting point [3]: −1.0 ± 0.0 °C | RXR agonistic activity (activation of RXRα-Gal4 chimera receptor) [4]: did not activate | Inhibition of PDGF-Rα [5]: potent inhibitor | Inhibition of Abl [6]: potent inhibitor
